Holding throughout (format): cell-based
The target of test [1] is T1, human TRPM8 (Homo sapiens, UniProt Q7Z2W7).
T1 construct: expressed in transfected cells; host or cells: CHO (p658 mammalian expression vector)
The test is described as follows: In vitro human TRPM8 fluorescence calcium flux assay (recombinant CHO cells, Fluo4-AM, FDSS6000). The note with it: recombinant CHO cells expressing human TRPM8; menthol-related EC50, normalized to 100 μM menthol. In a few lines:
(§1)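 CHO cells stably expressing pig or human TRPM8, loaded with 2 μM Fluo4-AM in HBSS/20 mM HEPES/0.1% BSA/2.5 mM probenecid for 1 h at RT. Intracellular calcium read kinetically for 3 min after compound addition. EC50 from sixteen-point curves, normalized to 100 μM menthol maximal response.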

Test [2] deals with T2, pig TRPM8 (Sus scrofa, UniProt F1SM15).
T2 construct: expressed in transfected cells; host or cells: CHO (pcDNA5/FRT/TO vector; hygromycin B and blasticidin selection)
T2 sequence (F1SM15 1-1104): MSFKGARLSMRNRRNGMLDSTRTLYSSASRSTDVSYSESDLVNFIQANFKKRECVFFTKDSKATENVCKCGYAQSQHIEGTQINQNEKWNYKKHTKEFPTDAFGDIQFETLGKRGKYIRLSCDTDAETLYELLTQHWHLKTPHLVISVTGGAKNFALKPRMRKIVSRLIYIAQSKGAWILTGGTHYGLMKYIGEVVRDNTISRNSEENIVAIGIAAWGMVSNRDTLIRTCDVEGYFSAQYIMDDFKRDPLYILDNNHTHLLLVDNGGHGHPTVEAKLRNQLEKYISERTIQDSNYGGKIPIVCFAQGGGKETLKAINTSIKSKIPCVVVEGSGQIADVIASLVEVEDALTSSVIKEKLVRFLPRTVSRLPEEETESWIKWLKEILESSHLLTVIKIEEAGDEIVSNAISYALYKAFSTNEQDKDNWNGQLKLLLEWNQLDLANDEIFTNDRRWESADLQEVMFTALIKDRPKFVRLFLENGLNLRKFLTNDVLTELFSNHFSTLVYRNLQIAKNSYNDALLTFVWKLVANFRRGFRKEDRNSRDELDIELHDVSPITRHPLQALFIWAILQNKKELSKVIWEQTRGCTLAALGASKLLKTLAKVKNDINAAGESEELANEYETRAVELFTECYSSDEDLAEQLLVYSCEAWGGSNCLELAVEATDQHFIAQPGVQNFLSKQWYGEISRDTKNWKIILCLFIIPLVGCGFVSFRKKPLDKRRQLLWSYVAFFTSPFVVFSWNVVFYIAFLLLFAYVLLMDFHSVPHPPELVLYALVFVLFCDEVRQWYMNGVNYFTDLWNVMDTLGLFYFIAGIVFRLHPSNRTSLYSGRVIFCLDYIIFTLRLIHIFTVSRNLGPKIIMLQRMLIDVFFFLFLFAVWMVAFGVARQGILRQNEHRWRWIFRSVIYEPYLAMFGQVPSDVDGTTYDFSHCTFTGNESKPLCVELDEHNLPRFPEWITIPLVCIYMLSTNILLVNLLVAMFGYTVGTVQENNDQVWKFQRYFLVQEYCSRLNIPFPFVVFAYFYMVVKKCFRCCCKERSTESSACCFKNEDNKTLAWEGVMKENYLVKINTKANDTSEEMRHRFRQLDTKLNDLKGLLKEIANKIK
The test is described as follows: In vitro pig TRPM8 fluorescence calcium flux assay (recombinant CHO cells, Fluo4-AM, FDSS6000). Conditions: recombinant CHO cells expressing pig TRPM8; menthol-related EC50, normalized to 100 μM menthol. In a few lines:
as §1

The target in test [3] is T1, human TRPM8. As to the kind of experiment: In vitro human TRPM8 automated patch-clamp assay (SyncroPatch 384PE, CHO cells). The note with it: CHO cells expressing human TRPM8, 28° C. In a few lines:
(§2)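 Whole-cell automated patch clamp on engineered CHO lines at 28 °C, held at −60 mV, with −80 to +80 mV ramps every 5 s; one compound concentration per well. Peak current minus pre-addition baseline was normalised to no-compound control and Emax, and EC50 was fitted; 200 μM menthol wells served as control.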

Test [4] concerns the target T2, pig TRPM8. The test is described as follows: In vitro pig TRPM8 automated patch-clamp assay (SyncroPatch 384PE, CHO cells). The note with it: CHO cells expressing pig TRPM8, 28° C. In a few lines: as §2

Consider 22 compounds from patent US20240124408A1 (Sanofi, priority 2020, published 2024).

Each structure is given as a SMILES string. Where a name gives a salt, the structure may show the parent alone.

T1 sequence (Q7Z2W7 whole entry): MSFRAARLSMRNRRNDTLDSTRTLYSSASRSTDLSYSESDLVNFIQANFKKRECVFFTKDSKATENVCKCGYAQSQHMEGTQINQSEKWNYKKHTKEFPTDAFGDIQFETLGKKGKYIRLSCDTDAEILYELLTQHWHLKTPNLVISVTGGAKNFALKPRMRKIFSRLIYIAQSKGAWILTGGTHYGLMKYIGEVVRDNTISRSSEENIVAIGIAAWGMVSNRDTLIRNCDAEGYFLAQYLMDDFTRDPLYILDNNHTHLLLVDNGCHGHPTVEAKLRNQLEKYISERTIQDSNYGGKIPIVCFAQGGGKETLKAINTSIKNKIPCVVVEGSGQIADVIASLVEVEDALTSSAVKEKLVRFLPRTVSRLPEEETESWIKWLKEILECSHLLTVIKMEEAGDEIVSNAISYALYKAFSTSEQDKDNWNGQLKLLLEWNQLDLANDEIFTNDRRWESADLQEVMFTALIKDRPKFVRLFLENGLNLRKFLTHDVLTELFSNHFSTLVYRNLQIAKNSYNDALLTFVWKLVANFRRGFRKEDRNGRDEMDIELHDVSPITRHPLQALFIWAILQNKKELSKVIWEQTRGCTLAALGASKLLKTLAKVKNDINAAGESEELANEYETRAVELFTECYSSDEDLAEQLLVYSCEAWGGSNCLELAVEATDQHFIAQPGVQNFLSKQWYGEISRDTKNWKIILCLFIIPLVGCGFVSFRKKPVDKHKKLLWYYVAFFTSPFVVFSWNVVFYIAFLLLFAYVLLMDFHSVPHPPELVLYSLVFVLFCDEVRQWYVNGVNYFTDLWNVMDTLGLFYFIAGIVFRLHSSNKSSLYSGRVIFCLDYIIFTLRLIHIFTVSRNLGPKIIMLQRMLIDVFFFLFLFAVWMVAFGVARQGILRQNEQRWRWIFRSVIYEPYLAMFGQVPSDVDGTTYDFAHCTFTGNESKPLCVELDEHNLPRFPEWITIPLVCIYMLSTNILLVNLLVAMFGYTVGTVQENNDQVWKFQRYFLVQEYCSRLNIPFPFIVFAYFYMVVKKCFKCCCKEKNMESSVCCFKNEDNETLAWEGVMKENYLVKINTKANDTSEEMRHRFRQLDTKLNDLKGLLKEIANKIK

As to `CC(C)[C@@H]1CC[C@@H](C)C[C@@]1(O)C(=O)NCC(O)c1ccccc1Cl` (stereo partly drawn) [Example 160, (1S,2S,5R)-N-[2-(2-chlorophenyl)-2-hydroxy-ethyl]-1-hydroxy-2-isopropyl-5-methyl-cyclohexanecarboxamide], the EC50 came out at 0.0161 µM on human TRPM8 [1], 0.0164 µM at pig TRPM8 [2], 0.62 µM at human TRPM8 [3] and 0.48 µM at pig TRPM8 [4].

Turning to `COC(=O)COc1cccc(CCNC(=O)[C@]2(O)C[C@H](C)CC[C@H]2C(C)C)c1` [Example 64, methyl 2-(3-(2-((1S,2S,5R)-1-hydroxy-2-isopropyl-5-methylcyclohexane-1-carboxamido)ethyl)phenoxy)acetate], the half-maximal effective concentration (EC50) was found to be 0.0166 µM on human TRPM8 [1], 0.0083 µM on pig TRPM8 [2], 5.82 µM at human TRPM8 [3] and 3.87 µM at pig TRPM8 [4].

For the compound `CC(C)[C@@H]1CC[C@@H](C)C[C@@]1(O)C(=O)NCC(O)c1ccc(F)cc1` (stereo partly drawn) [Example 158, (1S,2S,5R)-N-[2-(4-fluorophenyl)-2-hydroxy-ethyl]-1-hydroxy-2-isopropyl-5-methyl-cyclohexanecarboxamide], the EC50 on human TRPM8 [1] is 0.007 µM; on pig TRPM8 [2], 0.003 µM; at human TRPM8 [3] it was 1.9 µM; on pig TRPM8 [4], 0.94 µM.

As to `CC(C)[C@@H]1CC[C@@H](C)C[C@@]1(O)C(=O)NCC(C(=O)OCCN)c1ccccc1` (stereo partly drawn) [Example 71, 2-aminoethyl 3-((1S,2S,5R)-1-hydroxy-2-isopropyl-5-methylcyclohexane-1-carboxamido)-2-phenylpropanoate hydrochloride], the EC50 on human TRPM8 [1] is 0.001 µM; at pig TRPM8 [2], 0.002 µM; at human TRPM8 [3], 0.183 µM; on pig TRPM8 [4], 0.862 µM.

Take `CC(C)[C@@H]1CC[C@@H](C)C[C@@]1(O)C(=O)NCC(=O)c1ccccc1` [Example 2, (1S,2S,5R)-1-hydroxy-2-isopropyl-5-methyl-N-(2-oxo-2-phenylethyl)cyclohexane-1-carboxamide]: the EC50 at human TRPM8 [1] stood at 0.0012 µM; on pig TRPM8 [2], 0.0007 µM; on human TRPM8 [3] it was 0.45 µM; at pig TRPM8 [4], 0.596 µM.

With `COC(=O)CCc1ccccc1CCNC(=O)[C@]1(O)C[C@H](C)CC[C@H]1C(C)C` [Example 93, methyl 3-(2-(2-((1S,2S,5R)-1-hydroxy-2-isopropyl-5-methylcyclohexane-1-carboxamido)ethyl)phenyl)propanoate], the EC50 on human TRPM8 [1] was determined as 0.0493 µM; on pig TRPM8 [2], 0.0678 µM; at human TRPM8 [3], 2.8 µM; on pig TRPM8 [4], 2 µM.

For `CC(C)[C@@H]1CC[C@@H](C)C[C@@]1(O)C(=O)NCC(O)c1cccc(CO)c1` (stereo partly drawn) [Example 37, (1S,2S,5R)-1-hydroxy-N-(2-hydroxy-2-(3-(hydroxymethyl)phenyl)ethyl)-2-isopropyl-5-methylcyclohexane-1-carboxamide], the EC50 on human TRPM8 [1] was 0.017 µM; at pig TRPM8 [2], 0.011 µM; on human TRPM8 [3], 3.1 µM; at pig TRPM8 [4] it was 2.36 µM.

For the compound `CC(C)[C@@H]1CC[C@@H](C)C[C@@]1(O)C(=O)NCC(=O)c1ccccc1O` [Example 38, (1S,2S,5R)-1-hydroxy-N-(2-(2-hydroxyphenyl)-2-oxoethyl)-2-isopropyl-5-methylcyclohexane-1-carboxamide], the concentration for a half-maximal effect (EC50) was determined as 0.0024 µM at human TRPM8 [1], 0.0018 µM on pig TRPM8 [2], 0.47 µM at human TRPM8 [3] and 0.276 µM on pig TRPM8 [4].

In the case of `CC(C)[C@@H]1CC[C@@H](C)C[C@@]1(O)C(=O)NCC(NC(=O)CN)c1ccccc1` (single isomer, unassigned) [Example 183], the EC50 on human TRPM8 [1] turned out to be 0.0027 µM; at pig TRPM8 [2], 0.0028 µM; at human TRPM8 [3], 0.12 µM; on pig TRPM8 [4], 0.02 µM.

On to `CC(C)[C@@H]1CC[C@@H](C)C[C@@]1(O)C(=O)NCCc1ccc(CO)cc1` [Example 109, (1S,2S,5R)-1-hydroxy-N-(4-(hydroxymethyl)phenethyl)-2-isopropyl-5-methylcyclohexane-1-carboxamide], for which the EC50 on human TRPM8 [1] is 0.0224 µM; on pig TRPM8 [2], 0.0119 µM; at human TRPM8 [3], 2.2 µM; at pig TRPM8 [4] it was 1.77 µM.

With `CC(C)[C@@H]1CC[C@@H](C)C[C@@]1(O)C(=O)NCCc1ccc(O)cc1` [Example 117, (1S,2S,5R)-1-hydroxy-N-[2-(4-hydroxyphenyl)ethyl]-2-isopropyl-5-methyl-cyclohexanecarboxamide], the EC50 on human TRPM8 [1] was determined as 0.0178 µM; at pig TRPM8 [2], 0.0045 µM; at human TRPM8 [3] it was 2.5 µM; on pig TRPM8 [4] it was 2.33 µM.

On to `CC(C)[C@@H]1CC[C@@H](C)C[C@@]1(O)C(=O)NCCc1cccnc1` [Example 124, (1S,2S,5R)-1-hydroxy-2-isopropyl-5-methyl-N-[2-(3-pyridyl)ethyl]cyclohexanecarboxamide], for which the EC50 came out at 0.0366 µM on human TRPM8 [1], 0.0117 µM on pig TRPM8 [2], 6.5 µM on human TRPM8 [3] and 6.76 µM at pig TRPM8 [4].

Turning to `CC(C)[C@@H]1CC[C@@H](C)C[C@@]1(O)C(=O)NCC(CO)c1ccccc1` (stereo partly drawn) [Example 70, (1S,2S,5R)-1-hydroxy-N-(3-hydroxy-2-phenylpropyl)-2-isopropyl-5-methylcyclohexane-1-carboxamide], the EC50 at human TRPM8 [1] amounted to 0.009 µM; on pig TRPM8 [2] it was 0.008 µM; on human TRPM8 [3], 3.99 µM; at pig TRPM8 [4], 3.74 µM.

Take `COc1cc(CO)ccc1OC(=O)CNC(=O)[C@]1(O)C[C@H](C)CC[C@H]1C(C)C` [Example 79, 4-(hydroxymethyl)-2-methoxyphenyl ((1S,2S,5R)-1-hydroxy-2-isopropyl-5-methylcyclohexane-1-carbonyl)glycinate]: the EC50 on human TRPM8 [1] was 0.0845 µM; at pig TRPM8 [2] it was 0.0576 µM; at human TRPM8 [3], 5.5 µM; on pig TRPM8 [4], 5.16 µM.

Regarding `CC(C)[C@@H]1CC[C@@H](C)C[C@@]1(O)C(=O)NCC(O)c1cccc(O)c1` (stereo partly drawn) [Example 32, (1S,2S,5R)-1-hydroxy-N-(2-hydroxy-2-(3-hydroxyphenyl)ethyl)-2-isopropyl-5-methylcyclohexane-1-carboxamide], the EC50 came to 0.003 µM at human TRPM8 [1], 0.003 µM at pig TRPM8 [2], 1.23 µM at human TRPM8 [3] and 0.507 µM at pig TRPM8 [4].

Regarding `COC(=O)COc1ccccc1CCNC(=O)[C@]1(O)C[C@H](C)CC[C@H]1C(C)C` [Example 61, methyl 2-(2-(2-((1S,2S,5R)-1-hydroxy-2-isopropyl-5-methylcyclohexane-1-carboxamido)ethyl)phenoxy)acetate], the EC50 at human TRPM8 [1] is 0.0111 µM; on pig TRPM8 [2], 0.0074 µM; at human TRPM8 [3], 2.91 µM; on pig TRPM8 [4] it was 5.05 µM.

For the compound `CC(C)[C@@H]1CC[C@@H](C)C[C@@]1(O)C(=O)NCC(=O)c1cccc(O)c1` [Example 39, (1S,2S,5R)-1-hydroxy-N-(2-(3-hydroxyphenyl)-2-oxoethyl)-2-isopropyl-5-methylcyclohexane-1-carboxamide], the EC50 at human TRPM8 [1] came out at 0.0012 µM; at pig TRPM8 [2] it was 0.0009 µM; at human TRPM8 [3], 0.46 µM; on pig TRPM8 [4], 0.43 µM.

Regarding `CC(C)[C@@H]1CC[C@@H](C)C[C@@]1(O)C(=O)NCC(=O)Nc1ccc(O)cc1` [Example 88, (1S,2S,5R)-1-hydroxy-N-(2-((4-hydroxyphenyl)amino)-2-oxoethyl)-2-isopropyl-5-methylcyclohexane-1-carboxamide], the EC50 on human TRPM8 [1] came out at 0.0567 µM; on pig TRPM8 [2] it was 0.02 µM; at human TRPM8 [3], 1.5 µM; on pig TRPM8 [4] it was 1.09 µM.

`COC(=O)[C@H](N)COc1cccc(CCNC(=O)[C@]2(O)C[C@H](C)CC[C@H]2C(C)C)c1` [Example 26, methyl O-(3-(2-((1S,2S,5R)-1-hydroxy-2-isopropyl-5-methylcyclohexane-1-carboxamido)ethyl)phenyl)-D-serinate]: the EC50 is 0.0037 µM on human TRPM8 [1], 0.0055 µM at pig TRPM8 [2], 1.8 µM at human TRPM8 [3] and 1.1 µM on pig TRPM8 [4].

In the case of `COC(=O)COc1cccc(C(O)CNC(=O)[C@]2(O)C[C@H](C)CC[C@H]2C(C)C)c1` (stereo partly drawn) [Example 33, methyl 2-(3-(1-hydroxy-2-((1S,2S,5R)-1-hydroxy-2-isopropyl-5-methylcyclohexane-1-carboxamido)ethyl)phenoxy)acetate], the EC50 at human TRPM8 [1] worked out at 0.065 µM; at pig TRPM8 [2], 0.038 µM; on human TRPM8 [3], 4.2 µM; on pig TRPM8 [4] it was 4.31 µM.

Turning to `CC(C)[C@@H]1CC[C@@H](C)C[C@@]1(O)C(=O)NCCc1ccccc1OCCN` [Example 6, (1S,2S,5R)—N-(2-(2-aminoethoxy)phenethyl)-1-hydroxy-2-isopropyl-5-methylcyclohexane-1-carboxamide], the EC50 came out at 0.0003 µM on human TRPM8 [1], 0.0005 µM at pig TRPM8 [2], 0.072 µM at human TRPM8 [3] and 0.237 µM on pig TRPM8 [4].

For `CC(C)[C@@H]1CC[C@@H](C)C[C@@]1(O)C(=O)NCCc1ccncc1` [Example 119, (1S,2S,5R)-1-hydroxy-2-isopropyl-5-methyl-N-[2-(4-pyridyl)ethyl]cyclohexanecarboxamide], the EC50 at human TRPM8 [1] came out at 0.0374 µM; on pig TRPM8 [2], 0.0063 µM; at human TRPM8 [3], 3.2 µM; at pig TRPM8 [4], 7.21 µM.
